Results: paper PMC7806935, “Exosite inhibition of ADAMTS-5 by a glycoconjugated arylsulfonamide” (Scientific Reports, 2021)

Biological target: T1, ADAMTS-5 MDTCS (Homo sapiens, UniProt Q9UNA0)
T1 construct: ADAMTS-5 MDTCS (lacking the C-terminal TS motif but retaining full versicanase activity); made in house; host or cells: HEK293T
T1 sequence (Q9UNA0 262-874 limits assumed): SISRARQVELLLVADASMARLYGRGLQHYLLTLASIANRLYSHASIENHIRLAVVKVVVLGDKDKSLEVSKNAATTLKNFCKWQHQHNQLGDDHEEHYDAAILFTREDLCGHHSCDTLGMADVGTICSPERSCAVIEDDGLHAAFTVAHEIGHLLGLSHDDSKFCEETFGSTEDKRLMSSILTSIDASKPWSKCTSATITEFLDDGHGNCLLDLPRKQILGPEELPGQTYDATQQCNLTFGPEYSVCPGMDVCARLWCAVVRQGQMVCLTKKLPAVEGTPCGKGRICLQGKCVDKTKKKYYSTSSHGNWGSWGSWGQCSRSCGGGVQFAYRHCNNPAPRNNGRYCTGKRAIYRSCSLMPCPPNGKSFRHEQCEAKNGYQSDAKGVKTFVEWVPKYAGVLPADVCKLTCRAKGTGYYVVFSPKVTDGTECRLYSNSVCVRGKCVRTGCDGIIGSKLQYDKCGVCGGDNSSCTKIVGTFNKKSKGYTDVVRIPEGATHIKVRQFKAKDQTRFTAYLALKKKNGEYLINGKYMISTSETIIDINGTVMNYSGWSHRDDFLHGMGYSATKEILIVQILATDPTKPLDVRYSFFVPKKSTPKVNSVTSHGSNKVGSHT
Experiment: Dual inhibition study (GM6001 with or without 4b, QF peptide cleavage)
Format: biochemical
Method: Figure 3 Compound 4b binds to the ADAMTS-5 Mp/Dis domains in the presence of GM6001. (A, B) Compound 4b inhibits versicanase activity of both full-length (FL) ADAMTS-5 and its variant containing only the Mp/Dis domains (ADAMTS-5 MD). Compound 4b (100 μM) or DMSO was incubated either with ADAMTS-5 FL (0.2 nM, A) or ADAMTS-5 MD (26 nM, B) for 2 h at 37 °C before addition of V1-5GAG (50 nM). At each time point, reactions were stopped by addition of EDTA and versikine fragments quantified by sandwich ELISA as reported in the Methods section. In the DMSO control, complete proteolysis was achieved after 7200 s. […]
QF peptide cleavage assays were conducted in 96-well black microtiter plates (Scientific Laboratories Supplies Ltd, Wilford, UK) using a Fluostar Omega microplate reader (BMG Labtech, Aylesbury, UK). The activity of ADAMTS-4 (1 nM) and -5 (5 nM) was monitored for 2 h using the fluorescent peptide substrates fluorescein 5(6)-carbonyl-Ala-Glu-Leu-[…]-Gly-Arg-Pro-Ile-Ser-Ile-Ala-Lys-N,N,N0,N0-tetramethyl-6-carboxyrhodamine-NH2 (FAM-AE ~ LQGRPISIAK-TAMRA, ADAMTS-4) and fluorescein 5(6)-carbonyl-Thr-Glu-Ser-Glu ~ Ser-Arg-Gly-Ala-Ile-Tyr-Lys-Lys-N,N,N0,N0-tetramethyl-6-carboxyrhodamine-NH2 (FAM-TESE ~ SRGAIYKK-TAMRA, ADAMTS-5) (custom-synthesized by Bachem, Bubendorf, Switzerland) with an excitation wavelength of 485 nm and an emission wavelength of 538 nm. […]

IC50 (QF peptide, DMSO, no 4b, read-out: IC50^− (in the absence of 4b)): 370 ± 90 nM
IC50^+/IC50^− (ratio with/without 10 μM 4b, < 1 synergistic): 0.043
SMILES: CNC(=O)[C@H](Cc1c[nH]c2ccccc12)NC(=O)[C@@H](CC(=O)NO)CC(C)C [GM6001]
